In ChEMBL document CHEMBL6120955, “Computationally Driven Discovery of a BCR-ABL1 Kinase Inhibitor with Activity in Multidrug-Resistant Chronic Myeloid Leukemia” (J Med Chem, 2024):
Active and inactive are the calls of the source. The calls are words filed in the database; no cut-off is given here.

Assays:
in vitro = conditions: dog, MDCK-MDR1
[1] = Stability in human hepatocytes; format: ADME, cell-based, Hepatocyte
[2] = Stability in mouse hepatocytes; format: ADME, cell-based, Hepatocyte
[3] = target: Mast/stem cell growth factor receptor Kit (Homo sapiens) (UniProt P10721); experiment: Binding affinity to human KIT at 1 uM by KINOMEscan analysis
Chain of Mast/stem cell growth factor receptor Kit (Homo sapiens) (P10721 whole entry): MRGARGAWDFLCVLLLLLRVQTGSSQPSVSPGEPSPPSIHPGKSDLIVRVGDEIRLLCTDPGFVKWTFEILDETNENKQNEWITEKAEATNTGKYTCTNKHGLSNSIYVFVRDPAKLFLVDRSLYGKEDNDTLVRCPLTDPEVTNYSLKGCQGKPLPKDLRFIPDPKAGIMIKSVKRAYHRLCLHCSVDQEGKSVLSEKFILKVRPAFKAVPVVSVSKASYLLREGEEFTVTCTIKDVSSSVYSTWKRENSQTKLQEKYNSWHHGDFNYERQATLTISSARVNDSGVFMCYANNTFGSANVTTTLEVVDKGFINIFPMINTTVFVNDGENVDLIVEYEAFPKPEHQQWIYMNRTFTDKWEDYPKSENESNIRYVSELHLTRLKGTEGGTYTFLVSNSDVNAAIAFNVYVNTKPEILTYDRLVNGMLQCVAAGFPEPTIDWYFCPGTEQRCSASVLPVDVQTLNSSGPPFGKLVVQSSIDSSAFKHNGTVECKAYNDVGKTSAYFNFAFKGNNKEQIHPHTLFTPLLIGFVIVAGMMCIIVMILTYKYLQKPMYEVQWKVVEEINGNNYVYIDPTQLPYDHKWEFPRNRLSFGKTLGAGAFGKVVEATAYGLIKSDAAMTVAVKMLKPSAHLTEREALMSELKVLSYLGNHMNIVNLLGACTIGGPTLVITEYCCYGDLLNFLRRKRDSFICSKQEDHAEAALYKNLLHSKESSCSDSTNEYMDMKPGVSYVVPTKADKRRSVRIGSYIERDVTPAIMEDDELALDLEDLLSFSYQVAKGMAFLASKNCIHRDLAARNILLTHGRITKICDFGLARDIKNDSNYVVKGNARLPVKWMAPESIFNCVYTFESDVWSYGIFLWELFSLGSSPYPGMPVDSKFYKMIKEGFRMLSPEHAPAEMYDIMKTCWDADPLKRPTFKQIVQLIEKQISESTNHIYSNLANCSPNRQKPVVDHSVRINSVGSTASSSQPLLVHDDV

Homo sapiens = species: Homo sapiens; experiment: Binding affinity to human PDGFR at 1 uM by KINOMEscan analysis

Row | efflux ratio (in vitro) | Stability [1] | Stability [2] | inhibition [3] | inhibition (Homo sapiens) | SMILES
1 | 0.9 |  |  |  |  | COc1cc2ncnc(Nc3cccc(Cl)c3F)c2cc1OCCON1CCN(C)CC1
2 |  | Stable | Stable | inactive | inactive | COc1cc2c(Nc3ccc(Cl)c(OC)n3)c(C#N)cnc2cc1OCCON1CCN(C)CC1
